# In PubChem BioAssay (NCI):
#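 All cell lines were grown in 96-well plates and treated with compound for 48 hours. At the TGI there is no net growth.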
# What was measured:
# Assay in all cases: NCI-60 cell line screen, 48 h
# [1] = system: T-47D breast
# [2] = system: HL-60(TB) leukemia
# [3] = system: SK-MEL-5 melanoma
# [4] = system: UO-31 renal
# [5] = system: BT-549 breast
# [6] = system: RXF 393 renal
# [7] = system: OVCAR-5 ovarian
# [8] = system: SK-OV-3 ovarian
# [9] = system: SNB-75 CNS
# [10] = system: HCT-116 colon
# [11] = system: CCRF-CEM leukemia
# [12] = system: 786-0 renal
# [13] = system: SK-MEL-2 melanoma
# [14] = system: LOX IMVI melanoma
# [15] = system: HS 578T breast
# [16] = system: COLO 205 colon
# [17] = system: HOP-92 NSCLC
SMILES,TGI [1],TGI [2],TGI [3],TGI [4],TGI [5],TGI [6],TGI [7],TGI [8],TGI [9],TGI [10],TGI [11],TGI [12],TGI [13],TGI [14],TGI [15],TGI [16],TGI [17]
NC(N)=NS(=O)(=O)c1ccc(NCc2cccc3c(=O)c4ccc(Cl)cc4oc23)cc1,> 23.7 µM,5.94 µM,> 16.5 µM,> 12.1 µM,> 14.4 µM,7.17 µM,> 18.9 µM,> 17.3 µM,8.64 µM,> 22.4 µM,> 7.9 µM,> 12.9 µM,> 16.7 µM,> 11.3 µM,13.9 µM,> 20.3 µM,17.8 µM
C#CCNC(CCCN=C(N)N)C(=O)O (stereo unspecified),> 100 µM,> 100 µM,> 100 µM,> 100 µM,> 100 µM,> 100 µM,> 100 µM,> 100 µM,> 100 µM,> 100 µM,> 100 µM,> 100 µM,> 100 µM,> 100 µM,> 100 µM,> 100 µM,> 100 µM
CCCCCCCCCCCCCCCCNc1nc(=O)n(C2CC(O)C(COP(=O)(O)OC3CC(n4cc(F)c(=O)[nH]c4=O)OC3CO)O2)cc1F (stereo unspecified),> 100 µM,19 µM,> 41.9 µM,> 46.8 µM,35.3 µM,30.3 µM,> 100 µM,> 100 µM,> 68.8 µM,> 100 µM,17.6 µM,> 100 µM,> 63.9 µM,17.1 µM,> 100 µM,47.4 µM,> 59.5 µM
Cc1cc(NS(=O)(=O)c2ccc(NC(=O)c3ccc4nc5ccccc5c(Nc5ccc(S(N)(=O)=O)cc5)c4c3)cc2)no1,71.3 µM,56.2 µM,41 µM,43.4 µM,67.5 µM,58.4 µM,65.8 µM,> 100 µM,94.7 µM,63.2 µM,78.3 µM,30.8 µM,73.3 µM,26.5 µM,86.8 µM,43.8 µM,78.3 µM
COC(=O)c1ccc(C)cc1C1CN=NC12Cc1c(C)cccc1C2=O (stereo unspecified),81.7 µM,71.1 µM,> 53.2 µM,> 100 µM,> 70.1 µM,> 100 µM,> 100 µM,> 93.4 µM,> 100 µM,> 86.9 µM,> 100 µM,> 100 µM,98.3 µM,> 70.7 µM,> 100 µM,42.8 µM,97 µM
N#Cc1ccc(N=NN2CCCC2)cc1,> 100 µM,> 100 µM,> 100 µM,> 100 µM,> 100 µM,> 100 µM,> 100 µM,> 100 µM,> 100 µM,> 100 µM,> 100 µM,> 100 µM,> 100 µM,> 100 µM,> 100 µM,> 100 µM,> 100 µM
N#Cc1ccccc1NC(=O)C(O)C(O)C(O)C(O)C=O (stereo unspecified),> 100 µM,> 100 µM,> 100 µM,> 100 µM,> 100 µM,> 100 µM,> 100 µM,> 100 µM,> 100 µM,> 100 µM,> 100 µM,> 100 µM,> 100 µM,> 100 µM,> 100 µM,> 100 µM,> 100 µM
CCc1cccc(CC)c1Nc1nc(-c2ccccc2-c2ccccc2)cs1,> 100 µM,> 100 µM,> 100 µM,> 100 µM,84.8 µM,> 100 µM,> 100 µM,> 100 µM,> 100 µM,> 100 µM,> 100 µM,> 100 µM,> 100 µM,> 100 µM,> 100 µM,> 100 µM,> 100 µM
